These results are taken from patent US6043367A, “Proactive antitumor compounds” (priority 1998, dated 2000).

Data set [1] concerns CaSki human cervical carcinoma cells. Nature of the data set: in vitro cytotoxicity: [3H] leucine incorporation (protein synthesis) in CaSki cells.
Description: One way to evaluate the in vitro cytotoxic activities of a proactive compound is by incubating the tested compound with cancerous cells in serum at 37° C. for a certain period of time. After incubation, the cells can be washed and pulsed with [^3 H] leucine in leucine-free medium for another period of time. The radioactivity of trichloroacetic acid-precipitated protein, an indication of the level of protein synthesis of the cell, can then be measured.
CaSki human cervical carcinoma cells were plated overnight in 96-well microtiter plates at 18,000 cells/well. Serial dilution of (i) compound 17 alone, (ii) compound 22 with β-glucuronidase, and (iii) compound 22 alone, in medium containing 5% fetal calf serum were added to cells for 96 hours at 37° C. Cells were subsequently washed once with sterile PBS, and then pulsed for 2 hours with [^3 H] leucine (1 μCi/well) in leucine-free medium. The radioactivity of trichloroacetic acid-precipitated protein was measured in a Beckman LS 6000 series liquid scintillation counter.
The target of data set [2] is E. coli β-glucuronidase (Escherichia coli, UniProt P05804). Kind of data set: cleavage of compound 22 by β-glucuronidase in βG buffer, HPLC. Particulars: E. coli β-glucuronidase 1 μg/ml, 37° C. The class given is biochemical. Here is the method: The proactive compound can also be tested as to its ability to be cleaved by β-glucuronidase. Specifically, the enzyme and the tested compound are both added to […]. Aliquots are then taken out and evaluated in a similar fashion as described above.
Sequence of E. coli β-glucuronidase (P05804 whole entry): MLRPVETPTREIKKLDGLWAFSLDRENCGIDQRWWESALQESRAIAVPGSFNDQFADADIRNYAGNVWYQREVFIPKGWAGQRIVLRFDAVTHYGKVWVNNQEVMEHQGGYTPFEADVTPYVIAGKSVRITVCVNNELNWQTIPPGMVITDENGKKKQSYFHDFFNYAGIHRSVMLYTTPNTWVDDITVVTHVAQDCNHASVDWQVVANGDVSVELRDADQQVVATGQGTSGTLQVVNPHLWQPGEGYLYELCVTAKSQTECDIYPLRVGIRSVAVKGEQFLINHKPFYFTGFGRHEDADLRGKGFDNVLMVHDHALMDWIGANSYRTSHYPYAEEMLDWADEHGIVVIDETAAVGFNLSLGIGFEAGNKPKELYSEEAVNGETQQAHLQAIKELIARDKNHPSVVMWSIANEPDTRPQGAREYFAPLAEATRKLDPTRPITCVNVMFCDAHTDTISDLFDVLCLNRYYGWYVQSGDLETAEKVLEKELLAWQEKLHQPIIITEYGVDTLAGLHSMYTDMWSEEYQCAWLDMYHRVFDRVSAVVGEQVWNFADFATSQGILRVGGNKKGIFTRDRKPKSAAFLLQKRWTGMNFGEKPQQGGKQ
(§1) 20 μl samples made from compounds 22 and 17 (moiety (3) of compound 22) were injected onto a Hypersil column (RP-18, 4.6×250 mm, 5 μm) with 45% methanol and 25 mM phosphate buffer (pH 2.5) as mobile phase at a flow rate of 1 ml/min. Eluted components were detected by fluorescence (excitation: 397 nm, emission: 482 nm) on a Gilson fluorometer. Peak areas were analyzed with Beckman system Gold software. The retention times for compound 17 and compound 22 were 9.5 and 15.8 minutes, respectively.
500 μl of compound 22 (116 μM) in βG buffer (100 mM acetic acid, 50 mM bis-tris, 50 mM triethanolamine, pH 7.0) was incubated with E. coli β-glucuronidase (1 μg/ml) at 37° C. Aliquots (30 μl) withdrawn after 0, 1, 2, 3, and 5 minutes was mixed with 300 μl of ethyl acetate, and acidified by addition of 12 mM phosphoric acid (270 μl). […] The recovery of compounds 22 and 17 from βG buffer […] were about 90% and 80%, respectively. Samples were suspended in 150 μl of mobile phase (45% methanol/25 mM phosphate buffer, pH 2.5) and analyzed by HPLC.

The nature of data set [3]: stability of the proactive compound in 95% human plasma at 37° C., HPLC. Particulars: 145 μM (100 μg/ml), CO2 atmosphere, up to 48 hours, as compared with compound 23. The class given is in vitro ADME. Here is the method: The stability of the proactive compound in serum can be evaluated by using high performance liquid chromatography (HPLC) analysis. […] Aliquots are taken out from the serum solution after every pre-designed period of time, e.g., every other hour. The proteins present in serum are precipitated, acidified, and dried under reduced pressure. The dried compound is dissolved in the HPLC buffer and then analyzed by HPLC.
as §1

As to `CC[C@@]1(O)C(=O)OCc2c1cc1n(c2=O)Cc2cc3c(N)cccc3nc2-1` [Compound 17, reference compound], the “decrease of level of protein synthesis” value in data set [1] (compound alone, 100 nM, 96 hours, 37° C., 5% fetal calf serum) is recorded as about 4 fold. Further, the “absorbance of compound 17 released from compound 22 by β-glucuronidase” value in data set [2] (0-5 minutes, compound 22 116 μM, βG buffer pH 7.0) is “increased in the first three minutes and reached a steady level after the third minute”.
With `CC[C@@]1(O)C(=O)OCc2c1cc1n(c2=O)Cc2cc3c(NC(=O)OCc4ccc(O[C@@H]5O[C@H](C(=O)O)[C@@H](O)[C@H](O)[C@H]5O)cc4)cccc3nc2-1` [Compound 22], the “half life in serum” value in data set [3] is “surprisingly long half life in serum”. Moreover, the entries for the “cytotoxicity relative to compound 17” value in data set [1] (compound alone (no β-glucuronidase)) and in data set [1] (upon activation by glucuronidase) were “much less cytotoxic than compound 17” and “almost as cytotoxic as compound 17”, respectively. Besides, the “change of level of protein synthesis” value in data set [1] (compound alone (no β-glucuronidase), 100 nM, 96 hours, 37° C., 5% fetal calf serum) is “did not change”. The “decrease of level of protein synthesis” value in data set [1] (with β-glucuronidase, 100 nM, 96 hours, 37° C., 5% fetal calf serum) is recorded as about 4 fold. Moreover, the “conversion into moiety (3) upon activation by glucuronidase” value in data set [2] is given as “converted into its moiety (3), i.e., compound 17”. Further, in data set [2] (after 3 minutes, compound 22 116 μM, βG buffer pH 7.0), the “absorbance of compound 22 after incubation with β-glucuronidase” value is given as “almost undetectable”.
